Calls of active or inactive are those of the source. No cut-off for these calls is given here.

The values below come from ChEMBL document CHEMBL1121545, “Synthesis of potential inhibitors of hypoxanthine-guaine phosphoribosyltransferase for testing as antiprotozoal agents. 2. 1-Substituted hypoxanthines” (1980).

The species entered for the first experiment is Mus musculus. In words: Compound was tested for ability to extend the life span of Plasmodium berghei infected mice (Mus musculus); no activity. Type of experiment: functional, organism-based.
With `Nc1ccc(Cn2cnc3ncnc-3c2O)cc1`, the result was inactive.
On the same count and under the same terms, the result for `O=C(Nc1ccc(Cn2cnc3ncnc-3c2O)cc1)c1cccc(S(=O)(=O)F)c1` reads “inactive”; that for `OCCOc1[nH]cnc2ncnc1-2`, “inactive”.
Consider `O=C(Nc1ccc(Cn2cnc3ncnc-3c2O)cc1)c1ccc(Cl)cc1`, for which the result was inactive.
The same measure, in the same setting: the result for `O=[N+]([O-])c1ccc(Cn2cnc3ncnc-3c2O)cc1` reads “inactive”; that for `NCCn1cnc2ncnc-2c1O`, “inactive”.
As for `[N-]=[N+]=NCCn1cnc2ncnc-2c1O`, the outcome was inactive.
In the case of `O=C(CBr)Nc1ccc(Cn2cnc3ncnc-3c2O)cc1`, the outcome was inactive.
Consider `Oc1c2ncnc-2ncn1CCCl`, for which the outcome was inactive.
Still for that read-out and setting: the value for `O=C(Nc1ccc(Cn2cnc3ncnc-3c2O)cc1)c1ccc(S(=O)(=O)F)cc1` was “inactive”.

A further experiment has as its system Mus musculus. In words: Compound was tested for the effective dose required for the inhibition of Trypanosoma rhodesiense in mice at 424 mg/kg dose in mice; (2 mice survived of 5 treated). In kind it is functional.
Regarding `O=C(CBr)NCCn1cnc2ncnc-2c1O`, the Survivals stood at 2.

The target in another experiment is T1, Hypoxanthine-guanine phosphoribosyltransferase (Homo sapiens) (UniProt P00492).
T1 sequence (whole entry): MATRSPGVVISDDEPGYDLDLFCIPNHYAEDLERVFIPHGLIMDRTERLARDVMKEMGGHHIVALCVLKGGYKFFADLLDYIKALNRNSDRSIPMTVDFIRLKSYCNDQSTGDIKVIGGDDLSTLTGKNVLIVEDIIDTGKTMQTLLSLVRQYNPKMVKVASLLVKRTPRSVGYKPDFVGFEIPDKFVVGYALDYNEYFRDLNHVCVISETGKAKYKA
In words: Compound was tested for the inhibition of Hypoxanthine-Guanine Phosphoribosyltransferase (from H.Ep.2 cells); no activity.
Regarding `Nc1ccc(Cn2cnc3ncnc-3c2O)cc1`, the result was inactive.
Same read-out and setting: the result for `O=C(Nc1ccc(Cn2cnc3ncnc-3c2O)cc1)c1cccc(S(=O)(=O)F)c1` reads “inactive”; that for `OCCOc1[nH]cnc2ncnc1-2`, “inactive”; that for `O=C(Nc1ccc(Cn2cnc3ncnc-3c2O)cc1)c1ccc(Cl)cc1`, “inactive”.
The same measure, in the same setting: the value for `O=[N+]([O-])c1ccc(Cn2cnc3ncnc-3c2O)cc1` was “inactive”; that for `NCCn1cnc2ncnc-2c1O` was “inactive”.
Still for that read-out and setting: the result for `[N-]=[N+]=NCCn1cnc2ncnc-2c1O` reads “inactive”; that for `O=C(CBr)Nc1ccc(Cn2cnc3ncnc-3c2O)cc1`, “inactive”.
With `Oc1c2ncnc-2ncn1CCCl`, the outcome was inactive.
On the same count and under the same terms, the value for `O=C(Nc1ccc(Cn2cnc3ncnc-3c2O)cc1)c1ccc(S(=O)(=O)F)cc1` was “inactive”.

In a further experiment the test system is Mus musculus. In words: Compound was tested for the effective dose required for the inhibition of Trypanosoma rhodesiense in mice at 212 mg/kg dose in mice; (1 mice survived of 5 treated). Type of experiment: functional.
In turn, `O=C(CBr)NCCn1cnc2ncnc-2c1O` yielded a Survivals of 1.

A further experiment has as its system Mus musculus. In words: Compound was tested for the effective dose required for the inhibition of Trypanosoma rhodesiense in mice at 106 mg/kg dose in mice; (1 mice survived of 5 treated). Type of experiment: functional.
As to `O=C(CBr)NCCn1cnc2ncnc-2c1O`, the Activity is listed as 1.
